Tests used:
Type in all cases: functional
Clostridium tertium = assay: Antimicrobial activity in Clostridium tertium by CLSI agar dilution method in presence of Tazobactam
Fusobacterium nucleatum = assay: Antimicrobial activity in Fusobacterium nucleatum by CLSI agar dilution method in presence of Tazobactam
Prevotella corporis = assay: Antimicrobial activity in Prevotella corporis by CLSI agar dilution method in presence of Tazobactam
Prevotella bivia = assay: Antimicrobial activity in Prevotella bivia by CLSI agar dilution method in presence of Tazobactam
Prevotella veroralis = assay: Antimicrobial activity in Prevotella veroralis by CLSI agar dilution method in presence of Tazobactam
Cutibacterium acnes = assay: Antimicrobial activity in Propionibacterium acnes by CLSI agar dilution method in presence of Tazobactam
Bacteroides uniformis = assay: Antimicrobial activity in Bacteroides uniformis by CLSI agar dilution method in presence of Tazobactam
Prevotella nigrescens = assay: Antimicrobial activity in Prevotella nigrescens by CLSI agar dilution method in presence of Tazobactam
Tissierella praeacuta = assay: Antimicrobial activity in Clostridium hastiforme by CLSI agar dilution method in presence of Tazobactam
Anaerococcus tetradius = assay: Antimicrobial activity in Anaerococcus tetradius by CLSI agar dilution method in presence of Tazobactam
Bacteroides fragilis = assay: Antimicrobial activity in Bacteroides fragilis by CLSI agar dilution method in presence of Tazobactam
Parvimonas micra = assay: Antimicrobial activity in Micromonas micros by CLSI agar dilution method in presence of Tazobactam
Bacteroides ovatus = assay: Antimicrobial activity in Bacteroides ovatus by CLSI agar dilution method in presence of Tazobactam
Prevotella bergensis = assay: Antimicrobial activity in Prevotella bergensis by CLSI agar dilution method in presence of Tazobactam; settings: Hallella bergensis
[Clostridium] innocuum = Antimicrobial activity in Clostridium innocuum by CLSI agar dilution method in presence of Tazobactam
Prevotella denticola = assay: Antimicrobial activity in Prevotella denticola by CLSI agar dilution method in presence of Tazobactam
Porphyromonas gingivalis = assay: Antimicrobial activity in Porphyromonas gingivalis by CLSI agar dilution method in presence of Tazobactam
Bacteroides stercoris = assay: Antimicrobial activity in Bacteroides stercoris by CLSI agar dilution method in presence of Tazobactam
Prevotella intermedia = assay: Antimicrobial activity in Prevotella intermedia by CLSI agar dilution method in presence of Tazobactam
Eggerthella lenta = assay: Antimicrobial activity in Eggerthella lenta by CLSI agar dilution method in presence of Tazobactam
[1] = tested on: Parabacteroides distasonis; assay: Antimicrobial activity in Bacteroides distasonis by CLSI agar dilution method in presence of Tazobactam
Prevotella buccae = assay: Antimicrobial activity in Prevotella buccae by CLSI agar dilution method in presence of Tazobactam; settings: Segatella buccae
[2] = tested on: Peptoniphilus asaccharolyticus; assay: Antimicrobial activity in Peptoniphilus asaccharolyticus by CLSI agar dilution method in presence of Tazobactam
Hoylesella oralis = assay: Antimicrobial activity in Prevotella oralis group by CLSI agar dilution method in presence of Tazobactam
Thomasclavelia ramosa = assay: Antimicrobial activity in Clostridium ramosum by CLSI agar dilution method in presence of Tazobactam

Compound: CCN1CCN(C(=O)N[C@@H](C(=O)N[C@@H]2C(=O)N3[C@@H]2SC(C)(C)[C@@H]3C(=O)O)c2ccccc2)C(=O)C1=O [PIPERACILLIN]
- MIC50 (Clostridium tertium): 8 µg/mL
- MIC (Fusobacterium nucleatum): ≤ 0.125 µg/mL
- MIC50 (Fusobacterium nucleatum): ≤ 0.125 µg/mL
- MIC90 (Fusobacterium nucleatum): ≤ 0.125 µg/mL
- MIC (Prevotella corporis): ≤ 0.125 µg/mL
- MIC50 (Prevotella corporis): ≤ 0.125 µg/mL
- MIC (Prevotella bivia): ≤ 0.125 µg/mL
- MIC50 (Prevotella bivia): ≤ 0.125 µg/mL
- MIC90 (Prevotella bivia): ≤ 0.125 µg/mL
- MIC (Prevotella veroralis): ≤ 0.125 µg/mL
- MIC50 (Cutibacterium acnes): 0.25 µg/mL
- MIC90 (Cutibacterium acnes): 1 µg/mL
- MIC (Bacteroides uniformis): 0.5 µg/mL
- MIC50 (Bacteroides uniformis): 1 µg/mL
- MIC (Prevotella nigrescens): ≤ 0.125 µg/mL
- MIC50 (Prevotella nigrescens): ≤ 0.125 µg/mL
- MIC90 (Prevotella nigrescens): ≤ 0.125 µg/mL
- MIC (Tissierella praeacuta): 2 µg/mL
- MIC (Anaerococcus tetradius): ≤ 0.125 µg/mL
- MIC50 (Anaerococcus tetradius): ≤ 0.125 µg/mL
- MIC90 (Anaerococcus tetradius): 0.25 µg/mL
- MIC50 (Bacteroides fragilis): 0.5 µg/mL
- MIC90 (Bacteroides fragilis): 2 µg/mL
- MIC (Parvimonas micra): ≤ 0.125 µg/mL
- MIC50 (Parvimonas micra): ≤ 0.125 µg/mL
- MIC90 (Parvimonas micra): ≤ 0.125 µg/mL
- MIC50 (Bacteroides ovatus): 2 µg/mL
- MIC90 (Bacteroides ovatus): 4 µg/mL
- MIC (Prevotella bergensis): ≤ 0.125 µg/mL
- MIC ([Clostridium] innocuum): ≤ 0.125 µg/mL
- MIC (Prevotella denticola): ≤ 0.125 µg/mL
- MIC50 (Prevotella denticola): ≤ 0.125 µg/mL
- MIC90 (Prevotella denticola): ≤ 0.125 µg/mL
- MIC (Porphyromonas gingivalis): ≤ 0.125 µg/mL
- MIC (Bacteroides stercoris): ≤ 0.125 µg/mL
- MIC50 (Bacteroides stercoris): 1 µg/mL
- MIC (Prevotella intermedia): ≤ 0.125 µg/mL
- MIC50 (Prevotella intermedia): ≤ 0.125 µg/mL
- MIC90 (Prevotella intermedia): ≤ 0.125 µg/mL
- MIC50 (Eggerthella lenta): 16 µg/mL
- MIC90 (Eggerthella lenta): 16 µg/mL
- MIC50 [1]: 4 µg/mL
- MIC90 [1]: 4 µg/mL
- MIC (Prevotella buccae): ≤ 0.125 µg/mL
- MIC50 (Prevotella buccae): ≤ 0.125 µg/mL
- MIC90 (Prevotella buccae): ≤ 0.125 µg/mL
- MIC [2]: ≤ 0.125 µg/mL
- MIC50 [2]: ≤ 0.125 µg/mL
- MIC (Hoylesella oralis): ≤ 0.125 µg/mL
- MIC (Thomasclavelia ramosa): ≤ 0.125 µg/mL
